{"source": "ChEMBL document CHEMBL1122422", "about": "“Resolution of etodolac and antiinflammatory and prostaglandin synthetase inhibiting properties of the enantiomers” (J Med Chem, 1983)", "species": "Ovis aries", "experiment": "Effect of compound (400 uM) on biosynthesis of prostaglandins from tritiated arachidonic acid was evaluated in vitro; NE = No effect at the given concentration", "format": "functional"}
{"molecule": "CCc1cccc2c3c([nH]c12)C(CC)(CC(=O)O)OCC3", "note": "(single isomer, unassigned; (-))", "values": [{"measurement": "Activity", "result": "No effect"}]}
